Data as given in patent US9403823B2, “Protein kinase inhibitors” (ORIBASE PHARMA, priority 2012, dated 2016).
Read-outs that look alike come from different tables or passages of the source. Marks after values point to notes of the source that are not given here.

Key:
FGFR2 = target: T1, FGFR2 (Homo sapiens, UniProt P21802); experiment: In vitro kinase assay (Z'-LYTE), FGFR2; assay type: biochemical; conditions: read-out: % of inhibition of the kinase compared to the control
T1 construct: purchased Invitrogen
Method in brief: (§1)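 FRET-based Z'-LYTE coupled-enzyme assay: kinase phosphorylates a dual-fluorophore peptide, unphosphorylated peptide is protease-cleaved, and donor/acceptor emission ratio after 400 nm excitation quantifies progress. Buffer 50 mM HEPES pH 7.5, 10 mM MgCl2, 1 mM EGTA, 0.01% BRIJ-35; 1% DMSO final. Single compound concentration: 100 nM, or 10 μM for ABL and ABL T315I.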

ABL T315I = target: T2, ABL T315I (Homo sapiens, UniProt P00519, T315I); experiment: In vitro kinase assay (Z'-LYTE), ABL T315I; assay type: biochemical; conditions: read-out: % of inhibition of the kinase compared to the control
T2 construct: purchased Invitrogen
Experimental: (§2) 1) In Vitro Kinase Assays (Table 10 to Table 21)
(§3) The inhibitory activity of the compounds on several kinases including BRAF, EGFR (ErbB1), EGFR (ErbB1) T790M L858R, FGFR2, KDR (VEGFR2), PDGFRA (PDGFR alpha), SRC and other was evaluated by Invitrogen using the Z′-LYTE® technology. Briefly, the Z′-LYTE® biochemical assay employs a fluorescence-based, coupled-enzyme format and is based on the differential sensitivity of phosphorylated and non-phosphorylated peptides to proteolytic cleavage. The peptide substrate is labeled with two fluorophores—one at each end—that make up a FRET pair. A ratiometric method, which calculates the ratio (the Emission Ratio) of donor emission to acceptor emission after excitation of the donor fluorophore at 400 nm, is used to quantitate reaction progress.
(§4) The compounds are screened in 1% DMSO (final) in the well. For 10 point titrations, 3-fold serial dilutions are conducted from the starting concentration. All Peptide/Kinase Mixtures are diluted to a 2× working concentration in the appropriate Kinase Buffer. All ATP Solutions are diluted to a 4× working concentration in Kinase Buffer (50 mM HEPES pH 7.5, 0.01% BRIJ-35, 10 mM MgCl2, 1 mM EGTA). ATP Km apparent is previously determined using a Z′-LYTE® assay.
(§5) Each compound was incubated at a concentration of 100 nM (excepted to test the activity against ABL and ABL T315I for which the compounds were incubated at a concentration of 10 μM) and the tables 10 to 21 summarize the results obtained showing the inhibitory power of a compound.

A549 cell line = experiment: In vitro cell proliferation assay (MTT), A549; assay type: cell-based; conditions: Homo sapiens, read-out: EC50, anti-proliferative activity
Method in brief: (§6)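 Cancer cell lines were seeded at 5×10^3 cells per well and HRMEC at 1×10^4 cells per well, then incubated in duplicate with escalating compound concentrations (10 nM to 3 μM) for 72 hr. Proliferation was read by MTT.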

EGFR (ErbB1) = target: T3, EGFR (ErbB1) (Homo sapiens, UniProt P00533); experiment: In vitro kinase assay (Z'-LYTE), EGFR (ErbB1); assay type: biochemical; conditions: read-out: % of inhibition of the kinase compared to the control
T3 construct: purchased Invitrogen
Method in brief: as §1

HT29 cell line = experiment: In vitro cell proliferation assay (MTT), HT29; assay type: cell-based; conditions: Homo sapiens, read-out: EC50, anti-proliferative activity
Experimental: (§7) 2) In Vitro Cell Proliferation Assays (Table 22 to Table 35)
(§8) Cancer cell lines (5×10^3 cells per well) or HUVEC (1×10^4 cells per well) or HRMEC (1×10^4 cells per well) were distributed in 96-well plates and incubating in duplicate with escalating concentrations (10 nM to 3 μM) of compounds for 72 hr. Cell proliferation was measured using MTT (3[4,5-dimethylthiazol-2-yl]-2,5-diphenyltetrazolium bromide).

EGFR (ErbB1) T790M L858R = target: T4, EGFR (ErbB1) T790M L858R (Homo sapiens, UniProt P00533, L858R/T790M); experiment: In vitro kinase assay (Z'-LYTE), EGFR (ErbB1) T790M L858R; assay type: biochemical; conditions: read-out: % of inhibition of the kinase compared to the control
T4 construct: purchased Invitrogen
Method in brief: as §1

PDGFRA (PDGFR alpha) = target: T5, PDGFRA (PDGFR alpha) (Homo sapiens, UniProt P16234); experiment: In vitro kinase assay (Z'-LYTE), PDGFRA; assay type: biochemical; conditions: read-out: % of inhibition of the kinase compared to the control
T5 construct: purchased Invitrogen
Method in brief: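 Z'-LYTE, HEPES pH 7.5/MgCl2/EGTA/BRIJ-35 buffer, 1% DMSO; cpd 100 nM (ABL, ABL T315I: 10 μM); ratiometric FRET read-out after protease development; % inhibition.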

H1975 cell line = experiment: In vitro cell proliferation assay (MTT), H1975; assay type: cell-based; conditions: Homo sapiens, NCI-H1975; H1975, 72 hr, MTT; read-out: EC50, anti-proliferative activity
Experimental: as §7, §8

ABL = target: T6, ABL (Homo sapiens, UniProt P00519); experiment: In vitro kinase assay (Z'-LYTE), ABL; assay type: biochemical; conditions: read-out: % of inhibition of the kinase compared to the control
T6 construct: purchased Invitrogen
Experimental: as §2, §3, §4, §5

BxPC-3 cell line = experiment: In vitro cell proliferation assay (MTT), BxPC-3; assay type: cell-based; conditions: Homo sapiens, read-out: EC50, anti-proliferative activity
Experimental: as §7, §8

HepG2 cell line = experiment: In vitro cell proliferation assay (MTT), HepG2; assay type: cell-based; conditions: Homo sapiens, read-out: EC50, anti-proliferative activity
Method in brief: as §6

BRAF = target: T7, BRAF (Homo sapiens, UniProt P15056); experiment: In vitro kinase assay (Z'-LYTE), BRAF; assay type: biochemical; conditions: read-out: % of inhibition of the kinase compared to the control
T7 construct: purchased Invitrogen
Method in brief: as §1

SRC = target: T8, SRC (Homo sapiens, UniProt P12931); experiment: In vitro kinase assay (Z'-LYTE), SRC; assay type: biochemical; conditions: read-out: % of inhibition of the kinase compared to the control
T8 construct: purchased Invitrogen
Method in brief: as §1

KDR (VEGFR2) = target: T9, KDR (VEGFR2) (Homo sapiens, UniProt P35968); experiment: In vitro kinase assay (Z'-LYTE), KDR (VEGFR2); assay type: biochemical; conditions: read-out: % of inhibition of the kinase compared to the control
T9 construct: purchased Invitrogen
Method in brief: as §1

HuH7 cell line = experiment: In vitro cell proliferation assay (MTT), HuH7; assay type: cell-based; conditions: Homo sapiens, Huh-7, 72 h; read-out: EC50, anti-proliferative activity
Method in brief: as §6

HepG2 cells = experiment: Human hepatocellular carcinoma mouse model (HepG2 xenograft); assay type: in vivo, athymic nude male mice; conditions: 20 mg/kg q.d. per os for 15 consecutive days; for Anti-tumor activity (Tumor Growth Inhibition—TGI): mice, HepG2 xenograft, end of study vs vehicle
Experimental: 3) In Vivo Studies (Table 36)
Human hepatocellular carcinoma mouse model was prepared by subcutaneously implanting HepG2 cells (1×10^7 cell/mL in sterile PBS), into the right flank of athymic nude male mice (HSD, 6-7 weeks old). When the tumor volume reached approximately 200 mm^3, mice were assigned randomly to either vehicle alone or ORB compounds treatment groups (six mice per group). Mice were treated with either vehicle (PEG400) or OR0720, OR0721, OR0811 (20 mg/kg q.d.; per os for 15 consecutive days).
Tumor volumes in mm^3 were determined three times a week with a digital caliper and calculated using the following formula: Tumor Volume (mm)=length (mm)×width (mm)×width (mm)×½. Body weight was measured three times a week, and mice were observed daily for monitoring signs of stress to detect possible toxicities. One-way ANOVA was used for statistical comparisons. Data were analyzed with Prism 5.0 b (GraphPad Software) by one-way ANOVA with Bonferroni post hoc. Tumor Growth Inhibition (TGI) is calculated as the percent decrease of tumor growth at the end of the study in the ORB compounds treatment groups in comparison to the vehicle alone treatment group.

PC3 cell line = experiment: In vitro cell proliferation assay (MTT), PC3; assay type: cell-based; conditions: Homo sapiens, PC-3, 72 h; read-out: EC50, anti-proliferative activity
Experimental: as §7, §8

HuH6 Clone 5 cell line = experiment: In vitro cell proliferation assay (MTT), HuH6 Clone 5; assay type: cell-based; conditions: HUH-6-clone5; HuH6 Clone 5, 72 hr, MTT; read-out: EC50, anti-proliferative activity
Experimental: as §7, §8

MDA-MB-231 cell line = experiment: In vitro cell proliferation assay (MTT), MDA-MB-231; assay type: cell-based; conditions: Homo sapiens, MDA-MB-231, 72 h; read-out: EC50, anti-proliferative activity
Method in brief: as §6

HUVEC = experiment: In vitro cell proliferation assay (MTT), HUVEC; assay type: cell-based; conditions: Homo sapiens, 72 h, read-out: EC50, anti-proliferative activity
Method in brief: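 HUVEC cells were plated at 1×10^4 cells per well in 96-well plates and exposed in duplicate to increasing compound concentrations from 10 nM to 3 μM for 72 hr. Proliferation was then quantified with MTT (3[4,5-dimethylthiazol-2-yl]-2,5-diphenyltetrazolium bromide) to determine anti-proliferative activity.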

HRMEC cells = experiment: In vitro cell proliferation assay (MTT), HRMEC; assay type: cell-based; conditions: read-out: EC50, anti-proliferative activity
Experimental: as §7, §8

Caki-2 = experiment: In vitro cell proliferation assay (MTT), Caki-2; assay type: cell-based; conditions: Homo sapiens, read-out: EC50, anti-proliferative activity
Experimental: as §7, §8

HuCCT1 cell line = experiment: In vitro cell proliferation assay (MTT), HuCCT1; assay type: cell-based; conditions: Homo sapiens, HuCCT-1; HuCCT1, 72 hr, MTT; read-out: EC50, anti-proliferative activity
Experimental: as §7, §8

T9 sequence (P35968 20-1356): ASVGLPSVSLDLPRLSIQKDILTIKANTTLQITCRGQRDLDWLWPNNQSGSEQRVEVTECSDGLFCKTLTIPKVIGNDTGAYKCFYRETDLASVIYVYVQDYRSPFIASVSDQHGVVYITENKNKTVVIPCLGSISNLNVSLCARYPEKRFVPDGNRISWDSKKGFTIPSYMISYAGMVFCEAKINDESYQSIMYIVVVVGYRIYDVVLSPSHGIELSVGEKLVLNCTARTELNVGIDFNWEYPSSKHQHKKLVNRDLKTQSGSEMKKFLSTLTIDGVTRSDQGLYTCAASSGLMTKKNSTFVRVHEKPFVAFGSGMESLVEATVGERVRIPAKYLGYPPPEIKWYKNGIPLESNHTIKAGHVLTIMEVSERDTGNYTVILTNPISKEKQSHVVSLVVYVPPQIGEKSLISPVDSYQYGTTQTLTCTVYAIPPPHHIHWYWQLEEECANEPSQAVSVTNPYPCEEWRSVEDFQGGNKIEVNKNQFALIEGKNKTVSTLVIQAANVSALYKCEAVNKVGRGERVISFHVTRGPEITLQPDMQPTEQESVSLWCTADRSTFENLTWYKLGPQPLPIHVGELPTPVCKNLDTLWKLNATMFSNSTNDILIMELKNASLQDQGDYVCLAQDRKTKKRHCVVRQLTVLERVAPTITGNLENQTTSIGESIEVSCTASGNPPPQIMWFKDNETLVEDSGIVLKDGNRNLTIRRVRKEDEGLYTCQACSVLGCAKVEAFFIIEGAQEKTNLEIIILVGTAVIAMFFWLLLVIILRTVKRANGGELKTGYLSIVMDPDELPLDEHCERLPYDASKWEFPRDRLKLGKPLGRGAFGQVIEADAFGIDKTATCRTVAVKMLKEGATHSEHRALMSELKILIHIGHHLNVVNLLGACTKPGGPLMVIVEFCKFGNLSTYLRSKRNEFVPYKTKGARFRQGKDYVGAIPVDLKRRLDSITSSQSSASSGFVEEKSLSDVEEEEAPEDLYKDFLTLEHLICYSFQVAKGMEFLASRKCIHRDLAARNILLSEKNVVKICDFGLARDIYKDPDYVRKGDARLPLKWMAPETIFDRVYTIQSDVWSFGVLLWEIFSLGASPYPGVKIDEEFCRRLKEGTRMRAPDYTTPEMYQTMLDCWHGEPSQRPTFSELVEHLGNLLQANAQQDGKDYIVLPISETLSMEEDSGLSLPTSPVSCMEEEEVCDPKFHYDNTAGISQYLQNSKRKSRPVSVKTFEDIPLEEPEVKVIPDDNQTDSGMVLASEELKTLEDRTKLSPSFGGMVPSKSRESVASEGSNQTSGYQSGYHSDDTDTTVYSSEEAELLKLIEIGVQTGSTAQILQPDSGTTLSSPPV
T1 sequence (P21802 22-821): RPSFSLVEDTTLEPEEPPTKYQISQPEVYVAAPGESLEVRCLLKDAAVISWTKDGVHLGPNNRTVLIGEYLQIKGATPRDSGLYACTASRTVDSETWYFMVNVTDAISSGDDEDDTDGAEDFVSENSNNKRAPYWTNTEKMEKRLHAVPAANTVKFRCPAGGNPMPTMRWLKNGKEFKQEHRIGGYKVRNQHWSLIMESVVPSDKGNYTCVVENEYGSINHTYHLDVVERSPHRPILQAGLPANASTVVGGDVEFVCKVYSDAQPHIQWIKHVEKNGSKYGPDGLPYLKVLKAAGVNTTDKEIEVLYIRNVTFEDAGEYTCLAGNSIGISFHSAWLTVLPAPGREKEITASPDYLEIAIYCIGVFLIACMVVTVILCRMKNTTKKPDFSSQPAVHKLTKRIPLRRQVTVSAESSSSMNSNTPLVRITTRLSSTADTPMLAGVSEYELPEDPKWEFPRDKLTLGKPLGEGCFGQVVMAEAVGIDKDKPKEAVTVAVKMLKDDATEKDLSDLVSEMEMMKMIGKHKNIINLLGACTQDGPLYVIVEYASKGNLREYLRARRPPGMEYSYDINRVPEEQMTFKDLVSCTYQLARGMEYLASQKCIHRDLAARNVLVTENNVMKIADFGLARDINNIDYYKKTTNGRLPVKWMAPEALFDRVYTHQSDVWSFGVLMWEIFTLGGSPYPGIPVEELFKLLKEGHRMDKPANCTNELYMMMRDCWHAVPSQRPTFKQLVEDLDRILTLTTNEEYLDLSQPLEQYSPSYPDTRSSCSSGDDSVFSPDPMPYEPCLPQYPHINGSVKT
T3 sequence (P00533 25-1210): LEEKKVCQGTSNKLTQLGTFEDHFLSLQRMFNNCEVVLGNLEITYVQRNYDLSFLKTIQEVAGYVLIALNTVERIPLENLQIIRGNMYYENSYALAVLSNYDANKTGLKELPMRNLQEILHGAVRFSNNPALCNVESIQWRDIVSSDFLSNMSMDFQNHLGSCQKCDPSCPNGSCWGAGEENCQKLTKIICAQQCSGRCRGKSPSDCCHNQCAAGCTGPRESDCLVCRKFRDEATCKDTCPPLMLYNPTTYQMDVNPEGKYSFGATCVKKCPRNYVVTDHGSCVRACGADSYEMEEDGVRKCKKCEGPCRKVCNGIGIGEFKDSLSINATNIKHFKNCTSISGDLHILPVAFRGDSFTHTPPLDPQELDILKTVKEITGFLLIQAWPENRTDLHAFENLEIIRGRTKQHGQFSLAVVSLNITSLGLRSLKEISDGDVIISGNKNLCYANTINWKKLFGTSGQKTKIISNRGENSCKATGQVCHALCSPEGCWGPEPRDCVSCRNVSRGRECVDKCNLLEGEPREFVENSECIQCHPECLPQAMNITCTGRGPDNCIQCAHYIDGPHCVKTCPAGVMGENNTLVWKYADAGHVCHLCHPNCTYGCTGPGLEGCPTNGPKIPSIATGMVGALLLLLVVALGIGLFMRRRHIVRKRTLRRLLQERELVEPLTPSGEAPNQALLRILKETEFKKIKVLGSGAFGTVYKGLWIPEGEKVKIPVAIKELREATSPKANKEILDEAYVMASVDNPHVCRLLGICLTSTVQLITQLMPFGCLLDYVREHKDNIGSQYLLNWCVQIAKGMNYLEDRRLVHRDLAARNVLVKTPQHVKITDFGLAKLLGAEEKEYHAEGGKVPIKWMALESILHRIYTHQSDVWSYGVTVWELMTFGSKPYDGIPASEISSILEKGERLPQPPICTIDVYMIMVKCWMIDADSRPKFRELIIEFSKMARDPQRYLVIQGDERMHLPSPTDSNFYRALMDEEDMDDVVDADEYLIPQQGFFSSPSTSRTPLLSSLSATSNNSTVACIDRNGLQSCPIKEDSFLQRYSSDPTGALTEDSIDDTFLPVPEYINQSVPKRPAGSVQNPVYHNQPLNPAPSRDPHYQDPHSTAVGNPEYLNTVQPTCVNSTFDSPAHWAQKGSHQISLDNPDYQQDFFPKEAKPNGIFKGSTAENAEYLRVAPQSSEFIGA
T7 sequence (P15056 whole entry): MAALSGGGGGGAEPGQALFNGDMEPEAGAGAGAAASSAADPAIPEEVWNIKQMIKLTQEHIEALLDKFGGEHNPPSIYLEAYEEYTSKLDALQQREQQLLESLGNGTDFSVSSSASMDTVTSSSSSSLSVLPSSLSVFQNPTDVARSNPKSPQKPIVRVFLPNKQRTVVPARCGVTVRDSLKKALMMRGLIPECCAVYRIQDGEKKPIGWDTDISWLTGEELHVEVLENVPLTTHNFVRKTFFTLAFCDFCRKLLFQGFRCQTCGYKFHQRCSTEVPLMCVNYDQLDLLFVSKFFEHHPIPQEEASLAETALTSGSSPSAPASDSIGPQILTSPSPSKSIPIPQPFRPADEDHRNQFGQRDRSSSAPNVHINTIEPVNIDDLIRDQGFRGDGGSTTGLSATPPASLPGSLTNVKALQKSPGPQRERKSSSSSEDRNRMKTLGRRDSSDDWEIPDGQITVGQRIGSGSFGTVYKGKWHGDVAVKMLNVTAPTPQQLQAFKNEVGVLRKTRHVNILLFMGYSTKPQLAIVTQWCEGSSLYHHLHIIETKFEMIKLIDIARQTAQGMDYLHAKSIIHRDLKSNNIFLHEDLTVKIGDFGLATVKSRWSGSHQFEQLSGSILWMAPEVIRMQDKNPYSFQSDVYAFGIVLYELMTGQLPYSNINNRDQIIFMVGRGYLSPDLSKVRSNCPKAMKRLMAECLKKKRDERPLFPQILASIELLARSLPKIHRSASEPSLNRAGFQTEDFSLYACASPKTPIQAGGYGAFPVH
T8 sequence (P12931 whole entry): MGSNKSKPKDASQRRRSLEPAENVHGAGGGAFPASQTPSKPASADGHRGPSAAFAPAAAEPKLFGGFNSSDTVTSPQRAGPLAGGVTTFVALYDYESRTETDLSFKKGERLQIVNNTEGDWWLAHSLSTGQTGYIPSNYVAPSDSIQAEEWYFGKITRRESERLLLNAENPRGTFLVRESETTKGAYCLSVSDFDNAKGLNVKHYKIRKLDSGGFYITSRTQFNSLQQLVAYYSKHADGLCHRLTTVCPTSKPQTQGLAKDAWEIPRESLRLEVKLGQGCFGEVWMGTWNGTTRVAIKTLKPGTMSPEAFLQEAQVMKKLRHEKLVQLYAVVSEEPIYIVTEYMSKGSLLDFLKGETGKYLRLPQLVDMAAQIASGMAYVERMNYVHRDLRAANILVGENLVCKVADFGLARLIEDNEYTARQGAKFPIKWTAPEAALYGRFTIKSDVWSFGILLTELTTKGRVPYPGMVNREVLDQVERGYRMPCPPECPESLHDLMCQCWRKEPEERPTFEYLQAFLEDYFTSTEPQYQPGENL

Compound | inhibition at 0.1 µM (FGFR2) [%] | EC50 (A549 cell line; A549, 72 hr, MTT) [nM] | inhibition at 0.1 µM (EGFR (ErbB1)) [%] | EC50 (HT29 cell line; HT-29, HT29, 72 hr, MTT) [nM] | inhibition at 0.1 µM (EGFR (ErbB1) T790M L858R) [%] | inhibition at 0.1 µM (PDGFRA (PDGFR alpha)) [%] | EC50 (H1975 cell line) [nM] | inhibition at 0.1 µM (BRAF) [%] | inhibition at 0.1 µM (SRC) [%] | inhibition at 0.1 µM (KDR (VEGFR2)) [%] | EC50 (HuH7 cell line) [nM] | tumor growth in xenografted mice bearing human hepatocellular carcinoma tumors (HepG2 cells) | Anti-tumor activity (Tumor Growth Inhibition—TGI) (HepG2 cells) [%*] | EC50 (PC3 cell line) [nM] | EC50 (MDA-MB-231 cell line) [nM] | EC50 (HUVEC) [nM] | EC50 (BxPC-3 cell line; BXPC-3, 72 h) [nM] | EC50 (HepG2 cell line; HepG2, 72 h) [nM] | further results
Cc1ccc(NC(=O)c2ccc(CN3CCC(N(C)C)C3)c(C(F)(F)F)c2)cc1CNc1cnc2[nH]c(C(=O)O)cc2c1 (centres unmarked) [OR0528, 5-{5-[4-(3-Dimethylamino-pyrrolidin-1-ylmethyl)-3-trifluoromethyl-benzoylamino]-2-methyl-benzylamino}-1H-pyrrolo[2,3-b]pyridine-2-carboxylic acid] | ≥ 50 | ≥ 1000 | ≥ 50 | ≥ 1000 | ≥ 50 | ≥ 50 | ≥ 1000 | < 50 | ≥ 50 | ≥ 50 |  |  |  |  |  |  |  |  | inhibition at 10 µM (ABL T315I): ≥ 50%; inhibition at 10 µM (ABL): ≥ 50%; EC50 (BxPC-3 cell line; BxPC-3, 72 hr, MTT): ≥ 1000 nM; EC50 (HepG2 cell line; HepG2, 72 hr, MTT): ≥ 1000 nM
CC(=O)c1cc2cc(NCc3cc(NC(=O)c4cncc(C(F)(F)F)c4)ccc3C)cnc2[nH]1 [OR0721, N-{3-[(2-Acetyl-1H-pyrrolo[2,3-b]pyridin-5-ylamino)-methyl]-4-methyl-phenyl}-5-trifluoromethyl-nicotinamide] | < 50 | ≥ 1000 | < 50 | ≥ 1000 | < 50 | ≥ 50 | ≥ 1000 | ≥ 50 | ≥ 50 | ≥ 50 | 100 to 1000 | significantly induced a decrease of tumor growth | 54 | 100 to 1000 | 100 to 1000 | 100 to 1000 | 100 to 1000 | ≤ 100 | EC50 (HuH6 Clone 5 cell line): ≥ 1000 nM; EC50 (HRMEC cells; 72 hr, MTT): ≥ 1000 nM; EC50 (Caki-2; Caki-2, 72 hr, MTT): ≥ 1000 nM; EC50 (HuCCT1 cell line): ≥ 1000 nM
CC(=O)c1cc2cc(NCc3cc(NC(=O)c4ccc(CN5CC[C@H](N(C)C)C5)c(C(F)(F)F)c4)ccc3C)cnc2[nH]1 [OR0811, N-{3-[(2-Acetyl-1H-pyrrolo[2,3-b]pyridin-5-ylamino)-methyl]-4-methyl-phenyl}-4-((S)-3-dimethylamino-pyrrolidin-1-ylmethyl)-3-trifluoromethyl-benzamide] | ≥ 50 |  | ≥ 50 |  |  |  | ≥ 1000 | ≥ 50 |  | ≥ 50 | 100 to 1000 | significantly induced a decrease of tumor growth | 75 | 100 to 1000 | 100 to 1000 | 100 to 1000 | 100 to 1000 | ≤ 100 | EC50 (A549 cell line; A549, 72 h): 100 to 1000 nM; EC50 (HT29 cell line; HT-29, 72 h): 100 to 1000 nM; EC50 (HRMEC cells; 72 h): 100 to 1000 nM; EC50 (Caki-2; CAKI-2, 72 h): 100 to 1000 nM
